# Reference: US5574055A, “Oxazolidinone derivatives” (Hoffmann-La Roche Inc., priority 1993, dated 1996)
# Structures can show the parent of a compound that is named as a salt.
# Target: monoamine oxidase (MAO)
# Assay: MAO inhibition in vitro (brain)
# Format: biochemical
# Conditions: rat brain homogenate, 14C-5-HT or 14C-PEA as substrate (which one not given), pH 7.4, 37° C., 30 min pre-incubation, 10 min incubation
# Method: The MAO inhibiting activity of the compounds in accordance with the invention can be determined using standard methods.
# The preparations to be tested were investigated in the in vitro test described hereinafter, which was based on the method of R. J. Wurtmann and J. A. Axelrod [Biochem. Pharmac. 12, 1439-41 (1963).
# Isolated rat brains are homogenized in 0.1 molar potassium phosphate buffer (pH 7.4) in the ratio 1:9 (weight/volume), whereupon the homogenate is diluted with the same buffer in the ratio 1:4 (volume/volume) and stored at -20° C. A mixture of the following composition is used for the incubation:
# 100 μl of 1M phosphate buffer (pH 7.4);
# 100 μl of solubilizate of the substance to be tested in water or in aqueous dimethyl sulfoxide;
# 50 μl of rat brain homogenate; and as the substrate
# 50 μl of ^14 C-labelled serotonin (5-HT) or ^14 C-phenylethylamine (PEA), in each instance 100,000 decay per minute, corresponding to a final concentration of 2·10^-4 mol/l and, respectively, 2·10^-5 mol/l.
# A pre-incubation at 37° C. is effected for 30 minutes prior to the addition of the substrate. The incubation (in the presence of the substrate) is likewise effected at 37° C. and lasts for 10 minutes. The reaction is stopped by the addition of 200 μl of 2N hydrochloric acid. In order to extract the deaminated product, the mixture is shaken for 10 minutes with 5 ml of diethyl ether or with 5 ml of n-heptane depending on whether 5-HT or PEA is used as the substrate, whereupon the mixture is centrifuged, the aqueous phase is frozen in a dry-ice bath and the organic phase is transferred into a counting glass.
# The activity of the MAO in comparison to the control homogenates is determined on the basis of the β-counter values.
# Under the above test conditions the activity is linear with respect to time and to the concentration of the homogenizate. The IC50 values were determined graphically as a log of the concentration-activity curve. The IC50 was defined as that concentration of a substance to be tested which reduces the activity of the MAO upon the substrate 5-HT or PEA by 50%.
row,Structure (SMILES),IC50
1,"O=C1OC(CO)CN1c1ccc(C2CCCCC2)cc1 (racemic) [Example 1, (RS)-3-(4-Cyclohexyl-phenyl)-5-hydroxymethyl-oxazolidin-2-one]",8.5 nM
2,"COCC1CN(c2ccc([C@H]3CC[C@H](OCCC#N)CC3)cc2)C(=O)O1 (mixture of isomers) [Example 30, (RS)-3-[trans-4-[4-(5-Methoxymethyl-2-oxo-Oxazolidin-3-yl)-phenyl]cyclohexyloxy]-propionitrile]",5 nM
3,"COCC1CN(c2ccc([C@H]3CC[C@H](CC#N)CC3)cc2)C(=O)O1 (mixture of isomers) [Example 49, (RS)-[trans-4-[4-(5-Methoxymethyl-2-oxo-oxazolidin-3-yl)-phenyl]-cyclohexyl]-acetonitrile]",0.9 nM
4,"COCC1CN(c2ccc(C3CCN(C(=O)/C=C/c4ccccc4)CC3)cc2)C(=O)O1 (racemic) [Example 59, (RS)-4-[4-(5-Methoxymethyl-2-oxo-oxazolidin-3-yl)-phenyl]-1-(1-oxo-3-phenyl-2,(E)-propenyl)-piperidine]",10 nM
5,"COCC1CN(c2ccc([C@H]3CC[C@H](OCC#N)CC3)cc2)C(=O)O1 (mixture of isomers) [Example 66, (RS)-[trans-4-[4-(5-Methoxymethyl-2-oxo-oxazolidin-3-yl)-phenyl]-cyclohexyloxy]-acetonitrile]",2 nM
6,"COC[C@H]1CN(c2ccc(OCC[C@@H](O)C(F)(F)F)cc2)C(=O)O1 [Befloxaton, reference compound]",1.9 nM
7,"COCC1CN(c2ccc(C3CC4C=CC3C4)cc2)C(=O)O1 (stereo not drawn) [Example 18, 3-[(1RS,2SR,4RS)-4-Bicyclo[2.2.1]hept-5-en-2-yl-phenyl]-5-methoxymethyl-oxazolidin-2-one (R:S=1:1)]",9 nM
8,COC[C@H]1CN(c2ccc([C@H]3CC[C@H](CC#N)CC3)cc2)C(=O)O1 [Example 50],1 nM
9,"COC[C@H]1CN(c2ccc([C@H]3CC[C@H](OCC#N)CC3)cc2)C(=O)O1 [Example 63, (R)-[trans-4-[4-(5-Methoxymethyl-2-oxo-oxazolidin-3-yl)-phenyl]-cyclohexyloxy]-acetonitrile]",1.6 nM
10,"COCC1CN(c2ccc([C@H]3CC[C@H](OCCN)CC3)cc2)C(=O)O1 (stereo partly drawn) [Example 68, (RS)-3-[trans-4-[4-(5-Methoxymethyl-2-oxo-oxazolidin-3-yl)-phenyl]-cyclohexyloxy]ethanamine.HCl]",74 nM
11,"COC[C@H]1CN(c2ccc([C@H]3CC[C@H](OCCCN)CC3)cc2)C(=O)O1 [Example 71, (R)-3-[trans-4-(3-Amino-propoxy)-cyclohexyl]-phenyl]-5-methoxymethyl-oxazolidin-2-one hydrochloride]",33 nM

# The remaining lines, values ahead:
row,IC50,Structure (SMILES)
1,2 nM,"COCC1CN(c2ccc(C3CCCCC3)cc2)C(=O)O1 (racemic) [Example 2, (RS)-3-(4-Cyclohexyl-phenyl)-5-methoxymethyl-oxazolidin-2-one]"
2,10 nM,"COCC1CN(c2ccc(C3CCC(=O)CC3)cc2)C(=O)O1 (racemic) [Example 7, (RS)-3-[4-(4-Oxo-cyclohexyl)-phenyl]-5-methoxymethyl-oxazolidin-2-one]"
3,8.4 nM,"COCC1CN(c2ccc([C@H]3CC[C@H](O)CC3)cc2)C(=O)O1 (mixture of isomers) [Example 8, (RS)-3-[4(trans-4-Hydroxy-cyclohexyl)-phenyl]-5-methoxymethyl-oxazolidin-2-one]"
4,10 nM,"COCC1CN(c2ccc([C@H]3CC[C@H](OC(C)=O)CC3)cc2)C(=O)O1 (mixture of isomers) [Example 33, Acetic acid (RS)-trans-4-[4-(5-methoxymethyl-2-oxo-oxazolidin-3-yl)-phenyl]-cyclohexylester]"
5,3 nM,"COCC1CN(c2ccc(C3CCC(CO)CC3)cc2)C(=O)O1 (racemic) [Example 38, (RS)-3-[4-(Cis- and trans-4-Hydroxymethyl-cyclohexyl)-phenyl]-5-methoxymethyl-oxazolidin-2-one]"
6,0.1 nM,"COC[C@H]1CN(c2ccc(C3CCCCC3)cc2)C(=O)O1 [Example 6, (R)-3-(4-Cyclohexyl-phenyl)-5-methoxymethyl-oxazolidin-2-one]"
7,1 nM,"COC[C@H]1CN(c2ccc(C3CCC(=O)CC3)cc2)C(=O)O1 [Example 14, (R)-3-[4-(4-Oxo-cyclohexyl)-phenyl]-5-methoxymethyl-oxazolidin-2-one]"
8,8.5 nM,"COC[C@H]1CN(c2ccc([C@H]3CC[C@H](O)CC3)cc2)C(=O)O1 [Example 15, (R)-3-[4-(trans-4-Hydroxy-cyclohexyl)-phenyl]-5-methoxymethyl-oxazolidin-2-one]"
9,6 nM,COCC1CN(c2ccc([C@H]3CC[C@H](OC)CC3)cc2)C(=O)O1 (stereo partly drawn) [Example 16]
10,4 nM,"COCC1CN(c2ccc(C3CCC(C)(O)CC3)cc2)C(=O)O1 (stereo not drawn) [Example 39, (RS)-3-[4-(cis or trans-4-Hydroxy-4-methyl-cyclohexyl)-phenyl]-5-methoxymethyl-oxazolidin-2-one]"
